Results published in patent US9730939B2, “Heterocyclylamines as PI3K inhibitors” (Incyte Corporation, priority 2011, dated 2017).

Target: PI3Kδ (p110δ/p85α) (Homo sapiens (Human), UniProt O00329)
Test: Example A3 PI3Kδ scintillation proximity assay
Type: biochemical
Settings: comparison of compounds 355-358; assay not given
Description: PI3Kδ Scintillation Proximity Assay
[γ-^33P]ATP (10 mCi/mL) was purchased from PerkinElmer (Waltham, Mass.). […] PI3Kδ (p110δ/p85α) was purchased from Millipore (Bedford, Mass.). ATP, MgCl2, DTT, EDTA, MOPS and CHAPS were purchased from SigmaAldrich (St. Louis, Mo.). Wheat Germ Agglutinin (WGA) YSi SPA Scintillation Beads was purchased from GE healthcare life sciences (Piscataway, N.J.).
The final concentration of DMSO in the assay was 0.5%. The PI3K assays were carried out at room temperature in 20 mM MOPS, pH 6.7, 10 mM MgCl2, 5 mM DTT and CHAPS 0.03%. Reactions were initiated by the addition of ATP, the final reaction mixture consisted of 20 μM PIP2, 20 μM ATP, 0.2 μCi [γ-^33P]

Sequence of PI3Kδ (p110δ/p85α) (O00329 whole entry): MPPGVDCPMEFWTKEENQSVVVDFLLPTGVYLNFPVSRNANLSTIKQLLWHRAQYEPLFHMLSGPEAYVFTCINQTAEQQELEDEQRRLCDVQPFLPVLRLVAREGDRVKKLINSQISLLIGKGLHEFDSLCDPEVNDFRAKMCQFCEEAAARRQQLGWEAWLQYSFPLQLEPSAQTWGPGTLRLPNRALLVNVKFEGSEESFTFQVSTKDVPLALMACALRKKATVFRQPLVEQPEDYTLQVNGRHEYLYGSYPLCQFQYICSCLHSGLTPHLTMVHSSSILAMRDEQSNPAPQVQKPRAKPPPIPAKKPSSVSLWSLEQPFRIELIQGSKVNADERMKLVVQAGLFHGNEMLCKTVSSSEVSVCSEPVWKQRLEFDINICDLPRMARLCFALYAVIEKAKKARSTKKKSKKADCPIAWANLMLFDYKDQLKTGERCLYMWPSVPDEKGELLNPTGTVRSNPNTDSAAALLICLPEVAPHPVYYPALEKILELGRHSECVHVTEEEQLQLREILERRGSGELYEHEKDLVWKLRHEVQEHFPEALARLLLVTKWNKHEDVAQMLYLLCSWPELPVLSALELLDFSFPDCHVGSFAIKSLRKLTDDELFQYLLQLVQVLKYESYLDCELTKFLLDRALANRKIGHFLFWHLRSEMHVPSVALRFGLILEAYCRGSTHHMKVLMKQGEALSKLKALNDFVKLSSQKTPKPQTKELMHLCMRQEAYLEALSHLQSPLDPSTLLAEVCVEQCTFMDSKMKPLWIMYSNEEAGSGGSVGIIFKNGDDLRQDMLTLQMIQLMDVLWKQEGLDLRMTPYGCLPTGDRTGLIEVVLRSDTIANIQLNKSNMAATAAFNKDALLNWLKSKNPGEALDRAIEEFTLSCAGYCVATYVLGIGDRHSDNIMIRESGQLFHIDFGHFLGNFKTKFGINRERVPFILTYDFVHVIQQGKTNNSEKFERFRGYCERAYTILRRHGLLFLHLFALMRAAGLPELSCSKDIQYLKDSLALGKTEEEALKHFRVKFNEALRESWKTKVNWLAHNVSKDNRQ
Sequence of PI3Kδ (p110δ/p85α) (P27986 whole entry partner): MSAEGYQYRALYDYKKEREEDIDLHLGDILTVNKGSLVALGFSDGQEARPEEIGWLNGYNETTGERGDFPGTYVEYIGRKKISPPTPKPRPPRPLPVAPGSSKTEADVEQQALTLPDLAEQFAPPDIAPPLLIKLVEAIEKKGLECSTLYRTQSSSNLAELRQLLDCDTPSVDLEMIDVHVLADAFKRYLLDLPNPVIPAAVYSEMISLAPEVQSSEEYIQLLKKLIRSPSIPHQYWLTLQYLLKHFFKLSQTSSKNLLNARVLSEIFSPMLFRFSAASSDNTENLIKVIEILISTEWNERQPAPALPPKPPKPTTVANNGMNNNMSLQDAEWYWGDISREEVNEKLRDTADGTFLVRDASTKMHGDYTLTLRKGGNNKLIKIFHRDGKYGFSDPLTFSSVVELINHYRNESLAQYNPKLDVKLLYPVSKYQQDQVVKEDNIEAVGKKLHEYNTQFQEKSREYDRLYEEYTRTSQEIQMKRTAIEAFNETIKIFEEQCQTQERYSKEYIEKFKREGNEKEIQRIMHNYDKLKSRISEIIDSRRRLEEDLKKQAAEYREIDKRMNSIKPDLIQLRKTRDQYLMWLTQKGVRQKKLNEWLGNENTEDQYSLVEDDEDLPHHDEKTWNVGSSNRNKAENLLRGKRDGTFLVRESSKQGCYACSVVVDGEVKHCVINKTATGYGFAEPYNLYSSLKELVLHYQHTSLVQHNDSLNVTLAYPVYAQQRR

relative activity of the separated enantiomers (peaks 1-4): most active enantiomer
SMILES: CCOc1c(C(C)n2nc(C)c3c(N)ncnc32)cc(Cl)c(F)c1C1CNC(=O)O1 (single isomer, unassigned) [Example 357, 5-{3-[1-(4-amino-3-methyl-1H-pyrazolo[3,4-d]pyrimidin-1-yl)ethyl]-5-chloro-2-ethoxy-6-fluorophenyl}-1,3-oxazolidin-2-one]
